Key:
IKKε = target: T1, IKKε (Homo sapiens, UniProt Q14164); experiment: ADP-Glo Kinase Assay, inhibition activity on IKKε; format: biochemical
T1 construct: purchased Promega and/or Invitrogen V4158; PR8031B; V3991 (not assigned to the two kinases)
T1 sequence (Q14164 1-716): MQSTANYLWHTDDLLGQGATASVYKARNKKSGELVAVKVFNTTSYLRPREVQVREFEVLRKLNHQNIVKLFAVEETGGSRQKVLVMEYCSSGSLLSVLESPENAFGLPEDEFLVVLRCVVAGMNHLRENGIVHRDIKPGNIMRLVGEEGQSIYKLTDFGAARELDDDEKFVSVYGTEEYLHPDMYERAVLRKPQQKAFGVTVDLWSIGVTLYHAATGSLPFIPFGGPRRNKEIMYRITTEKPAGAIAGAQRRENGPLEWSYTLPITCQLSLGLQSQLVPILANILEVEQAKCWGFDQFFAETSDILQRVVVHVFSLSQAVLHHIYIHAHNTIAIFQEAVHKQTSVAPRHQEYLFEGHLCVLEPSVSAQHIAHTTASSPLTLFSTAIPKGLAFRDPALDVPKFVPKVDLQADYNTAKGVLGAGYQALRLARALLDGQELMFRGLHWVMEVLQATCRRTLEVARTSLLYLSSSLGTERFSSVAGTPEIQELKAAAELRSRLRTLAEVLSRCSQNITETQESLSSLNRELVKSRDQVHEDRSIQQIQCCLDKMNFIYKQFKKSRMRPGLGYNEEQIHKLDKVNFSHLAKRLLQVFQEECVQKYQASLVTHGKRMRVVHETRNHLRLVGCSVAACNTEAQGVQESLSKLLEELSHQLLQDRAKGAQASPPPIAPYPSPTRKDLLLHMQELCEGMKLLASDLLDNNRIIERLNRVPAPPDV
Description: Inhibition activities on IKKϵ and TBK1 were evaluated using the compounds of Examples 1 to 250.
The inhibition activities on IKKϵ and TBK1 were measured by a luminometer, IKKϵ/TBK1 Kinase Enzyme System (Promega, Ca# V4158; Invitrogen, PR8031B, Promega, Ca# V3991) and ADP-Glo Kinase Assay using ADP-Glo™ Kinase Analysis Kit (Promega, Ca# V9101) and a kinase reaction buffer [40 mM Tris(pH 7.5), 20 mM MgCl2, 0.1 mg/mL BSA] in accordance with the manufacturer's protocol.

TBK1 = target: T2, TBK1 (Homo sapiens, UniProt Q9UHD2); experiment: ADP-Glo Kinase Assay, inhibition activity on TBK1; format: biochemical
T2 construct: purchased Promega (Invitrogen is also named in the same bracket) V4158; PR8031B; V3991 (not assigned to the two kinases)
T2 sequence (Q9UHD2 1-729): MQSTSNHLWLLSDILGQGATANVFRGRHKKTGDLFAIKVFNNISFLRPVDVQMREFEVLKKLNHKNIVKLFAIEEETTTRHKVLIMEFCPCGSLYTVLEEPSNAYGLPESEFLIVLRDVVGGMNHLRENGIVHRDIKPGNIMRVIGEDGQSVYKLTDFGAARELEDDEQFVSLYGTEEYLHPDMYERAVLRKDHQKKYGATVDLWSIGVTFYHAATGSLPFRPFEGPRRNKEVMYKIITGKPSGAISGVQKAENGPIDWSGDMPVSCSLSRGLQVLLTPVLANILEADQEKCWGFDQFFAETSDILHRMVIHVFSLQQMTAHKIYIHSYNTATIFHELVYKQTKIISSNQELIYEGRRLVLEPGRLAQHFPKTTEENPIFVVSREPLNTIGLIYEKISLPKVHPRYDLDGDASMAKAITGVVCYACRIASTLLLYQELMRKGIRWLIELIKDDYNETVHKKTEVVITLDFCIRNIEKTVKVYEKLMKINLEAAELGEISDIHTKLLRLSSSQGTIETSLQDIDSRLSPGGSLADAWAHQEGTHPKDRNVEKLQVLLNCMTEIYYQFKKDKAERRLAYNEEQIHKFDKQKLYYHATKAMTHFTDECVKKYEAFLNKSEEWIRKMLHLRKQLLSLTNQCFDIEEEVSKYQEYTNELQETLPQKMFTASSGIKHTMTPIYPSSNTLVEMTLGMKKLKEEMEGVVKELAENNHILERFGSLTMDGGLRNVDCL
Outline: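 In 40 mM Tris pH 7.5 with 20 mM MgCl2 and 0.1 mg/mL BSA, each enzyme (IKKε or TBK1 kinase system) was run according to the manufacturer's protocol. ADP formed was detected by ADP-Glo luminescence.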

| IC50 (IKKε) | IC50 (TBK1) | SMILES |
| --- | --- | --- |
| 130 nM | 75 nM | CC(C)CC(=O)N1CC=C(c2c[nH]c3ncc(-c4ccc(CN5CCOCC5)s4)cc23)CC1 [Example 10, 3-Methyl-1-(4-(5-(5-(morpholinomethyl)thiophen-2-yl)-1H-pyrrolo[2,3-b]pyridin-3-yl)-3,6-dihydropyridin-1(2H)-yl)butan-1-one] |
| 8200 nM | 24 nM | CC(C)NC(=O)N1CC=C(c2c[nH]c3ncc(-c4ccccc4)cc23)CC1 [Example 11, N-isopropyl-4-(5-phenyl-1H-pyrrolo[2,3-b]pyridin-3-yl)-5,6-dihydropyridine-1(2H)-carboxamide] |
| 2200 nM | 29 nM | COc1ccc(-c2cnc3[nH]cc(C4=CCN(C(=O)NC(C)C)CC4)c3c2)cc1 [Example 12, N-isopropyl-4-(5-(4-methoxyphenyl)-1H-pyrrolo[2,3-b]pyridin-3-yl)-3,6-dihydropyridine-1(2H)-carboxamide] |
| 6800 nM | 31 nM | CC(C)NC(=O)N1CC=C(c2c[nH]c3ncc(-c4ccc(F)cc4)cc23)CC1 [Example 13, 4-(5-(4-Fluorophenyl)-1H-pyrrolo[2,3-b]pyridin-3-yl)-N-isopropyl-3,6-dihydropyridine-1(2H)-carboxamide] |
| > 10000 nM | 15 nM | COc1cccc(-c2cnc3[nH]cc(C4=CCN(C(=O)NC(C)C)CC4)c3c2)c1 [Example 14, N-isopropyl-4-(5-(3-methoxyphenyl)-1H-pyrrolo[2,3-b]pyridin-3-yl)-3,6-dihydropyridine-1(2H)-carboxamide] |
| > 10000 nM | 11 nM | CC(C)NC(=O)N1CC=C(c2c[nH]c3ncc(-c4cccc(F)c4)cc23)CC1 [Example 15, 4-(5-(3-Fluorophenyl)-1H-pyrrolo[2,3-b]pyridin-3-yl)-N-isopropyl-3,6-dihydropyridine-1(2H)-carboxamide] |
| 280 nM | 36 nM | Cc1ccc(-c2cnc3[nH]cc(C4=CCN(C(=O)NC(C)C)CC4)c3c2)cc1 [Example 16, N-isopropyl-4-(5-(p-tolyl)-1H-pyrrolo[2,3-b]pyridin-3-yl)-3,6-dihydropyridine-1(2H)-carboxamide] |
| 21 nM | 7.8 nM | CC(=O)Nc1ccc(-c2cnc3[nH]cc(C4=CCN(C(=O)NC(C)C)CC4)c3c2)cc1 [Example 17, 4-(5-(4-Acetamidophenyl)-1H-pyrrolo[2,3-b]pyridin-3-yl)-N-isopropyl-3,6-dihydropyridine-1(2H)-carboxamide] |
| 45 nM | 2.5 nM | COc1ccc(-c2cnc3[nH]cc(C4=CCN(C(=O)NC(C)C)CC4)c3c2)cc1OC [Example 18, 4-(5-(3,4-Dimethoxyphenyl)-1H-pyrrolo[2,3-b]pyridin-3-yl)-N-isopropyl-5,6-dihydropyridine-1(2H)-carboxamide] |
| 7 nM | 6.4 nM | CC(=O)Nc1cccc(-c2cnc3[nH]cc(C4=CCN(C(=O)NC(C)C)CC4)c3c2)c1 [Example 19, 4-(5-(3-Acetamidophenyl)-1H-pyrrolo[2,3-b]pyridin-3-yl)-N-isopropyl-3,6-dihydropyridine-1(2H)-carboxamide] |
| 46 nM | 32 nM | CC(C)NC(=O)N1CC=C(c2c[nH]c3ncc(-c4ccc(CN5CCOCC5)cc4F)cc23)CC1 [Example 20, 4-(5-(2-Fluoro-4-(morpholinomethyl)phenyl)-1H-pyrrolo[2,3-b]pyridin-3-yl)-N-isopropyl-3,6-dihydropyridine-1(2H)-carboxamide] |
| 160 nM | 71 nM | CC(C)NC(=O)N1CC=C(c2c[nH]c3ncc(-c4cc(CN5CCOCC5)ccc4F)cc23)CC1 [Example 21, 4-(5-(2-Fluoro-5-(morpholinomethyl)phenyl)-1H-pyrrolo[2,3-b]pyridin-3-yl)-N-isopropyl-3,6-dihydropyridine-1(2H)-carboxamide] |
| 20 nM | 10 nM | CCN1CCN(Cc2ccc(-c3cnc4[nH]cc(C5=CCN(C(=O)NC(C)C)CC5)c4c3)cc2)CC1 [Example 22, 4-(5-(4-((4-Ethylpiperazin-1-yl)methyl)phenyl)-1H-pyrrolo[2,3-b]pyridin-3-yl)-N-isopropyl-3,6-dihydropyridine-1(2H)-carboxamide] |
| 6.6 nM | 5.7 nM | CC(C)NC(=O)N1CC=C(c2c[nH]c3ncc(-c4ccc(CN5CCN(C6CC6)CC5)cc4)cc23)CC1 [Example 23, 4-(5-(4-((4-Cyclopropylpiperazin-1-yl)methyl)phenyl)-1H-pyrrolo[2,3-b]pyridin-3-yl)-N-isopropyl-3,6-dihydropyridine-1(2H)-carboxamide] |
| 41 nM | 12 nM | CCN1CCN(Cc2cccc(-c3cnc4[nH]cc(C5=CCN(C(=O)NC(C)C)CC5)c4c3)c2)CC1 [Example 24, 4-(5-(3-((4-Ethylpiperazin-1-yl)methyl)phenyl)-1H-pyrrolo[2,3-b]pyridin-3-yl)-N-isopropyl-3,6-dihydropyridine-1(2H)-carboxamide] |
| 51 nM | 16 nM | CC(C)NC(=O)N1CC=C(c2c[nH]c3ncc(-c4ccc(CN5CCN(C)CC5)nc4)cc23)CC1 [Example 25, N-isopropyl-4-(5-(6-((4-methylpiperazin-1-yl)methyl)pyridin-3-yl)-1H-pyrrolo[2,3-b]pyridin-3-yl)-3,6-dihydropyridine-1(2H)-carboxamide] |
| 25 nM | 7.7 nM | CCN1CCN(Cc2ccc(-c3cnc4[nH]cc(C5=CCN(C(=O)NC(C)C)CC5)c4c3)s2)CC1 [Example 26, 4-(5-(5-((4-Ethylpiperazin-1-yl)methyl)thiophen-2-yl)-1H-pyrrolo[2,3-b]pyridin-3-yl)-N-isopropyl-3,6-dihydropyridine-1(2H)-carboxamide] |
| 1980 nM | 570 nM | CC(C)NC(=O)N1CC=C(c2c[nH]c3ncc(-c4ccc(CN5CCCC5)o4)cc23)CC1 [Example 27, N-isopropyl-4-(5-(5-(pyrrolidin-1-ylmethyl)furan-2-yl)-1H-pyrrolo[2,3-b]pyridin-3-yl)-5,6-dihydropyridine-1(2H)-carboxamide] |
| 58 nM | 18 nM | CC(C)NC(=O)N1CC=C(c2c[nH]c3ncc(-c4ccc(CN5CCCC5)s4)cc23)CC1 [Example 28, N-isopropyl-4-(5-(5-(pyrrolidin-1-ylmethyl)thiophen-2-yl)-1H-pyrrolo[2,3-b]pyridin-3-yl)-5,6-dihydropyridine-1(2H)-carboxamide] |
| 29 nM | 16 nM | CC(C)NC(=O)N1CC=C(c2c[nH]c3ncc(-c4cccc(CN5CCOCC5)c4)cc23)CC1 [Example 29, N-isopropyl-4-(5-(3-(morpholinomethyl)phenyl)-1H-pyrrolo[2,3-b]pyridin-3-yl)-5,6-dihydropyridine-1(2H)-carboxamide] |
| 8.8 nM | 4.5 nM | CC(C)NC(=O)N1CC=C(c2c[nH]c3ncc(-c4ccc(CN5CCOCC5)cc4)cc23)CC1 [Example 30, N-isopropyl-4-(5-(4-(morpholinomethyl)phenyl)-1H-pyrrolo[2,3-b]pyridin-3-yl)-5,6-dihydropyridine-1(2H)-carboxamide] |

Reference: patent US10239873B2, “7-azaindole or 4,7-diazaindole derivatives as IKKϵ epsilon and TBK1 inhibitor and pharmaceutical composition comprising same” (GREEN CROSS CORPORATION, priority 2015, dated 2019)
